# According to ChEMBL document CHEMBL3739316, “Novel orally active inhibitors of β-1,3-glucan synthesis derived from enfumafungin” (Bioorg Med Chem Lett, 2015):
# Assays:
# [1] = tested on: Aspergillus fumigatus; experiment: Antifungal activity against Aspergillus fumigatus MF5668 after 24 hrs by liquid microdilution assay; assay type: functional; conditions: MF5668, 24 h, read-out: MEC
# [2] = tested on: Candida albicans; experiment: Antifungal activity against Candida albicans MY1055 after 24 hrs by liquid microdilution assay; assay type: functional; conditions: MY1055, 24 h
# [3] = tested on: Candida albicans; experiment: Antifungal activity against Candida albicans MY1055 after 24 hrs by liquid microdilution assay in presence of human serum; assay type: functional; conditions: MY1055, 24 h
# [4] = biological target: T1, Beta-1,3-glucan synthase (Candida albicans, UniProt O13383); experiment: Displacement of UDP-[3H]glucose from beta-1,3-glucan synthase in Candida albicans MY1055 microsomal membranes incubated for 2 hrs
# T1 sequence (O13383 whole entry): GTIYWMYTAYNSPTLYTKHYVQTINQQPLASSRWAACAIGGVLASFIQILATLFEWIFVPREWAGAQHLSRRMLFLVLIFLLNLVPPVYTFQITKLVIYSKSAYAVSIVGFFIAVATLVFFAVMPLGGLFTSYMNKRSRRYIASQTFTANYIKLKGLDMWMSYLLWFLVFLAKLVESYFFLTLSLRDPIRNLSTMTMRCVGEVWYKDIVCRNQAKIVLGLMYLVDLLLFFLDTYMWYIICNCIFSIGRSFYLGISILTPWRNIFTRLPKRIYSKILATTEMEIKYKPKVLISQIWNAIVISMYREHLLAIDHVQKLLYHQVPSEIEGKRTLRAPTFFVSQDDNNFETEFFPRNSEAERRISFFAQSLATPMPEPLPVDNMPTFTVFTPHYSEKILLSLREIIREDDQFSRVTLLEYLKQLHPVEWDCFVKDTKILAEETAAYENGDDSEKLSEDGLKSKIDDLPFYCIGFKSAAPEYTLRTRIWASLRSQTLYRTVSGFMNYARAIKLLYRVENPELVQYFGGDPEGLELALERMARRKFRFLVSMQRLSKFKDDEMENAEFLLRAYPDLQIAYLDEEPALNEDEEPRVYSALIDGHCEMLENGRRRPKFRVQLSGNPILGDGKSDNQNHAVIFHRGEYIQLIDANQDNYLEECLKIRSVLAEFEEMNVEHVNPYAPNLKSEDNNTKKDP
# [5] = tested on: Mus musculus; experiment: Dose normalized AUC in orally dosed mouse; assay type: ADME, organism-based; conditions: in vivo, po
# [6] = tested on: Candida albicans; experiment: Antifungal activity against Candida albicans MY1055 in DBA/2 mouse candidiasis model assessed as change in CFU per gram of kidney at 6.25 mg/kg, po bid after 4 days by Target Organ Kidney Assay relative to sham treated control; assay type: functional
# [7] = tested on: Candida albicans; experiment: Antifungal activity against Candida albicans MY1055 in DBA/2 mouse candidiasis model assessed as change in CFU per gram of kidney at 12.5 mg/kg, po bid after 4 days by Target Organ Kidney Assay relative to sham treated control; assay type: functional
# [8] = Oral bioavailability in mouse; assay type: ADME, organism-based; conditions: in vivo
# [9] = tested on: Candida albicans; experiment: Antifungal activity against Candida albicans MY1055 in DBA/2 mouse candidiasis model assessed as change in CFU per gram of kidney at 25 mg/kg, po bid after 4 days by Target Organ Kidney Assay relative to sham treated control; assay type: functional
Compound,minimal effective concentration [1],MIC [2],MIC [3],IC50 [4],AUC/dose [5],Activity [6],Activity [7],bioavailability [8],Activity [9]
CC(C)[C@@H](C)[C@@]1(C)CC[C@]2(C)[C@H]3CC[C@H]4C5(C)COC[C@@]4(C[C@@H](n4cc6ccccc6n4)[C@@H]5O[C@@H]4O[C@H](CO)[C@@H](O)[C@H](O)[C@H]4O)C3=CC[C@@]2(C)[C@@H]1C(=O)O,2 µg/mL,32 µg/mL,> 32 µg/mL,1200 nM,–,–,–,–,–
CC(=O)O[C@@H]1C[C@@]23COCC(C)([C@H]1OC[C@](C)(N)C(C)C)[C@@H]2CC[C@H]1C3=CC[C@@]2(C)[C@H](C(=O)O)[C@@](C)([C@H](C)C(C)C)CC[C@]12C,0.06 µg/mL,0.5 µg/mL,> 32 µg/mL,9.52 nM,1.38 µM·kg·h/mg,-0.6 deltalog10CFU,-0.6 deltalog10CFU,39%,-2.2 deltalog10CFU
CC(=O)O[C@@H]1C[C@@]23COCC(C)([C@H]1OCC(C)(C)N)[C@@H]2CC[C@H]1C3=CC[C@@]2(C)[C@H](C(=O)O)[C@@](C)([C@H](C)C(C)C)CC[C@]12C,< 0.03 µg/mL,1 µg/mL,32 µg/mL,74.8 nM,1.22 µM·kg·h/mg,–,–,37%,-1.4 deltalog10CFU
CC(=O)Nc1nnn([C@@H]2C[C@@]34COCC(C)([C@H]2OC[C@](C)(N)C(C)C)[C@@H]3CC[C@H]2C4=CC[C@@]3(C)[C@H](C(=O)O)[C@@](C)([C@H](C)C(C)C)CC[C@]23C)n1,< 0.03 µg/mL,0.25 µg/mL,16 µg/mL,86.1 nM,–,–,–,–,–
CC(C)[C@@H](C)[C@@]1(C)CC[C@]2(C)[C@H]3CC[C@H]4C5(C)COC[C@@]4(C[C@@H](n4ccnn4)[C@@H]5O[C@@H]4O[C@H](CO)[C@@H](O)[C@H](O)[C@H]4O)C3=CC[C@@]2(C)[C@@H]1C(=O)O,2 µg/mL,> 32 µg/mL,> 32 µg/mL,> 14200 nM,–,–,–,–,–
CCCCN[C@@](C)(CO[C@H]1[C@H](n2nnc(N)n2)C[C@@]23COCC1(C)[C@@H]2CC[C@H]1C3=CC[C@@]2(C)[C@H](C(=O)O)[C@@](C)([C@H](C)C(C)C)CC[C@]12C)C(C)C,0.125 µg/mL,16 µg/mL,32 µg/mL,14.1 nM,0.74 µM·kg·h/mg,-0.1 deltalog10CFU,-1.2 deltalog10CFU,30%,-2.6 deltalog10CFU
COc1ccc([C@@H]2C[C@@]34COCC(C)([C@H]2O[C@@H]2O[C@H](CO)[C@@H](O)[C@H](O)[C@H]2O)[C@@H]3CC[C@H]2C4=CC[C@@]3(C)[C@H](C(=O)O)[C@@](C)([C@H](C)C(C)C)CC[C@]23C)cc1,0.25 µg/mL,2 µg/mL,> 32 µg/mL,634 nM,–,–,–,–,–
CC(C)[C@@H](C)[C@@]1(C)CC[C@]2(C)[C@H]3CC[C@H]4C5(C)COC[C@@]4(C[C@@H](Oc4ccccc4)[C@@H]5O[C@@H]4O[C@H](CO)[C@@H](O)[C@H](O)[C@H]4O)C3=CC[C@@]2(C)[C@@H]1C(=O)O,0.125 µg/mL,2 µg/mL,32 µg/mL,578 nM,–,–,–,–,–
CC(C)[C@@H](C)[C@@]1(C)CC[C@]2(C)[C@H]3CC[C@H]4C5(C)COC[C@@]4(C[C@@H](n4cncn4)[C@@H]5O[C@@H]4O[C@H](CO)[C@@H](O)[C@H](O)[C@H]4O)C3=CC[C@@]2(C)[C@@H]1C(=O)O,0.125 µg/mL,2 µg/mL,32 µg/mL,342 nM,–,–,–,–,–
CC(C)[C@@H](C)[C@@]1(C)CC[C@]2(C)[C@H]3CC[C@H]4C5(C)COC[C@@]4(C[C@@H](n4ccc6ccccc64)[C@@H]5O[C@@H]4O[C@H](CO)[C@@H](O)[C@H](O)[C@H]4O)C3=CC[C@@]2(C)[C@@H]1C(=O)O,4 µg/mL,> 32 µg/mL,> 32 µg/mL,1410 nM,–,–,–,–,–
CC(C)[C@@H](C)[C@@]1(C)CC[C@]2(C)[C@H]3CC[C@H]4C5(C)COC[C@@]4(C[C@@H](n4nccn4)[C@@H]5O[C@@H]4O[C@H](CO)[C@@H](O)[C@H](O)[C@H]4O)C3=CC[C@@]2(C)[C@@H]1C(=O)O,0.5 µg/mL,> 32 µg/mL,> 32 µg/mL,1410 nM,–,–,–,–,–
CC(=O)Nc1nnnn1[C@@H]1C[C@@]23COCC(C)([C@H]1OC[C@](C)(N)C(C)C)[C@@H]2CC[C@H]1C3=CC[C@@]2(C)[C@H](C(=O)O)[C@@](C)([C@H](C)C(C)C)CC[C@]12C,< 0.03 µg/mL,8 µg/mL,> 32 µg/mL,81.8 nM,–,–,–,–,–
Cc1nnn([C@@H]2C[C@@]34COCC(C)([C@H]2OC[C@](C)(N)C(C)C)[C@@H]3CC[C@H]2C4=CC[C@@]3(C)[C@H](C(=O)O)[C@@](C)([C@H](C)C(C)C)CC[C@]23C)n1,0.5 µg/mL,1 µg/mL,> 32 µg/mL,24.5 nM,–,–,–,–,–
Cc1nnnn1[C@@H]1C[C@@]23COCC(C)([C@H]1OC[C@](C)(N)C(C)C)[C@@H]2CC[C@H]1C3=CC[C@@]2(C)[C@H](C(=O)O)[C@@](C)([C@H](C)C(C)C)CC[C@]12C,4 µg/mL,8 µg/mL,> 32 µg/mL,71.9 nM,–,–,–,–,–
CC(C)[C@@H](C)[C@@]1(C)CC[C@]2(C)[C@H]3CC[C@H]4C5(C)COC[C@@]4(C[C@@H](n4cccn4)[C@@H]5O[C@@H]4O[C@H](CO)[C@@H](O)[C@H](O)[C@H]4O)C3=CC[C@@]2(C)[C@@H]1C(=O)O,0.06 µg/mL,2 µg/mL,> 32 µg/mL,813 nM,–,–,–,–,–
CC(C)[C@@H](C)[C@@]1(C)CC[C@]2(C)[C@H]3CC[C@H]4C5(C)COC[C@@]4(C[C@@H](n4ncc6ccccc64)[C@@H]5O[C@@H]4O[C@H](CO)[C@@H](O)[C@H](O)[C@H]4O)C3=CC[C@@]2(C)[C@@H]1C(=O)O,8 µg/mL,32 µg/mL,> 32 µg/mL,> 1330 nM,–,–,–,–,–
CC(=O)O[C@@H]1C[C@@]23COCC(C)([C@H]1OC[C@@](C)(N)C(C)C)[C@@H]2CC[C@H]1C3=CC[C@@]2(C)[C@H](C(=O)O)[C@@](C)([C@H](C)C(C)C)CC[C@]12C,< 0.03 µg/mL,0.25 µg/mL,16 µg/mL,22.2 nM,0.73 µM·kg·h/mg,-0.5 deltalog10CFU,-0.1 deltalog10CFU,31%,-1.9 deltalog10CFU
CC(C)[C@@H](C)[C@@]1(C)CC[C@]2(C)[C@H]3CC[C@H]4C5(C)COC[C@@]4(C[C@@H](n4cnnc4)[C@@H]5O[C@@H]4O[C@H](CO)[C@@H](O)[C@H](O)[C@H]4O)C3=CC[C@@]2(C)[C@@H]1C(=O)O,1 µg/mL,4 µg/mL,> 32 µg/mL,–,–,–,–,–,–
CC(C)[C@@H](C)[C@@]1(C)CC[C@]2(C)[C@H]3CC[C@H]4C5(C)COC[C@@]4(C[C@@H](n4nnnc4N)[C@@H]5OC[C@](C)(N)C(C)C)C3=CC[C@@]2(C)[C@@H]1C(=O)O,0.25 µg/mL,4 µg/mL,> 32 µg/mL,56.5 nM,–,–,–,–,–
